{
  "source": "patent US20160291027A1",
  "about": "“METHODS FOR […] ABILITY OF A Z[…] COMPOUND TO TREAT CANCER” (Eisai R&D Management Co., Ltd., priority 2007, published 2016)",
  "key": {"[1]": {"tested_on": "cell lines which carried a BRAF V600E mutation", "assay": "Cell growth assay (CellTiter-Glo or methylene blue) in solid cancer cell lines", "type": "cell-based", "conditions": "96 hours, 0.3-10000 nM", "method": "In a separate experiment, Compounds 091 and 106 were tested in solid cancer cell lines from different tissue types (shown in FIG. 3B for 21 cell lines for compound 091 and 19 cell lines for compound 106). All cell lines were introduced into 96-well plates and grown in the absence or continuous presence of 0.3-10000 nM of either compound 091 or compound 106 for 96 hours. Cell growth was assessed using a CellTiter-Glo® Luminescent Cell Viability Assay (Promega) or a methylene blue assay. IC50 values were determined as the concentration of a substance which inhibits cell growth by 50% compared to untreated cell populations."}, "[2]": {"tested_on": "panel of 31 melanoma cell lines", "assay": "MTS cell viability assay in a panel of 31 melanoma cell lines", "type": "cell-based", "conditions": "for % of Less Sensitive cell lines / Less sensitive cell lines (number/total) / Sensitive cell lines (number/total): Cut-Off IC50 < 100 nmol/L; for Number of sensitive cell lines: sensitivity defined as IC50<500 nmol/L", "method": "Cell viability was also assessed in a panel of 31 melanoma cell lines carrying different mutations in BRAF following treatment with a zearalenone analog compound, Compound 106. All assays were performed in a 96 well format. Cell viability was assessed after four days following treatment. Cell viability was assessed with a MTS Assay (CellTiter96®AqueousOne Solution Cell Proliferation Assay, Promega) in a panel of cell lines carrying various BRAF mutations to determine the effect of BRAF genotype on drug sensitivity. The mutational status of these cell lines and IC50 in nmol/L is depicted in FIG. 3C.\nCell viability was assessed in a panel of melanoma cell lines carrying different mutations in BRAF, and PTEN following treatment with the MEK inhibitor, Compound 106. The panel of 31 melanoma cell lines was tested with eight concentrations of Compound 106 ranging from 10 μmol/L to 0.0003 μmol/L of Compound 106. (The panel of cell lines also carries mutations in one or more additional genes associated with cancer).\nAll assays were performed in a 96 well format. Cell viability was assessed after four days following treatment. Cell viability was assessed with a MTS Assay (CellTiter96®AqueousOne Solution Cell Proliferation Assay, Promega) to determine the effect of genotype on drug sensitivity."}, "[3]": {"tested_on": "LOX human melanoma xenografts", "assay": "Subcutaneous LOX melanoma xenograft model", "type": "in vivo, mice", "method": "The purpose of this study was to investigate anticancer activity of Compound 106 in a LOX human melanoma xenograft model. LOX human melanoma cells, which carry a BRAF (V600E) mutation, were obtained from the DCTD Tumor Repository (Frederick, Md.). Cells were grown in monolayer cultures in T225 flask with RPMI-1640 growth media at 37° C. in a 5% CO2 humidified incubator. Cells were further cultivated in T225 flasks for the in vivo study. On the day of subcutaneous (s.c.) injections of the cells, growth medium was removed, flasks were washed with PBS, and cells were collected with trypsinization. Cells were washed and centrifuged for 3 minutes, and then resuspended in ice-cold PBS.\nFemale athymic NU/NU mice were inoculated s.c. with 1×10^6 LOX human melanoma cells. Those animals that developed tumors of approximately 150 mm^3 were selected and randomized to five groups. The study consisted of a vehicle-treated group and four drug-treated groups of 8 mice per group for a total of 40 mice on the first day of treatment. All treatments were initiated on day 6. Compound 106 was administered intravenously (i.v.) on a Q4D×3 (days 6, 10, and 14) dosing schedule at dosages of 5, 10, 20 and 40 mg/kg with a volume of injection of 0.1 mL per 10 g body weight. The control group was treated with vehicle (20% Captisol in water) alone.\nThe s.c. tumor volumes were measured and animals were weighed twice weekly starting with the first day of treatment. Tumor volume and relative body weight (RBW) were determined as described in Example 12.\nThe study was terminated fifty-nine days after cancer cell transplantation. For each Compound 106 treatment group, measurements were also terminated when mean tumor volume reached two doublings (4-fold tumor volume) from the first day of treatment.\nAnimals were treated intravenously on days 6, 10, and 14 (Q4D×3; indicated by arrows in FIG. 11). Tumor measurements on tumor bearing mice in all surviving groups were stopped on day 37. Then, tumor measurements were continued for tumor-free mice in the 10 mg/kg (1/8), 20 mg/kg (5/8), and 40 mg/kg (7/8) Compound 106 treatment groups. The study was terminated on day 59. Asterisks (*) indicate P<0.05 vs. control group."}, "[4]": {"tested_on": "wildtype xenograft models (pancreatic cell lines)", "assay": "Other xenograft models, wildtype", "type": "in vivo, mice", "conditions": "40 mg/kg i.v. QD×5 for 2 weeks", "method": "Additionally, one, five, and seven out of eight animals in the groups treated with Compound 106 at doses of 10, 20, or 40 mg/kg, respectively, were tumor-free at the end of the study on day 59. […] Compound 106 was also tested in other xenograft models, in which BRAF-mutated cells, including breast, colon, and melanoma cell lines, or wildtype cells, including pancreatic cell lines, were transplanted subcutaneously into female nude mice. Compound 106 or a vehicle control was administered intravenously."}, "[5]": {"conditions": "mutant BRAF gene (20 cell lines)"}, "[6]": {"conditions": "total cell lines (31 cell lines)"}, "[7]": {"conditions": "wild-type BRAF gene (11 cell lines)"}},
  "data": [
    {"smiles": "CCNc1cc(O)c2c(c1)/C=C/C[C@H](O)[C@H](O)C(=O)/C=C\\[C@@H](C)[C@H](C)OC2=O", "note": "[Compound 106]", "values": [
      {"measurement": "Sensitivity of BRAF V600E cell lines (concentration range)", "setting": "[1]", "result": "low-nM or sub-μM concentration range"},
      {"measurement": "% of Less Sensitive cell lines", "setting": "[2]; [5]", "result": "(25%)"},
      {"measurement": "Less sensitive cell lines (number/total)", "setting": "[2]; [5]", "result": "5/20"},
      {"measurement": "Sensitive cell lines (number/total)", "setting": "[2]; [5]", "result": "15/20"},
      {"measurement": "% of Less Sensitive cell lines", "setting": "[2]; [6]", "result": "(42%)"},
      {"measurement": "Less sensitive cell lines (number/total)", "setting": "[2]; [6]", "result": "13/31"},
      {"measurement": "% of Less Sensitive cell lines", "setting": "[2]; [7]", "result": "(73%)"},
      {"measurement": "Less sensitive cell lines (number/total)", "setting": "[2]; [7]", "result": "8/11"},
      {"measurement": "Sensitive cell lines (number/total)", "setting": "[2]; [7]", "result": "3/11"},
      {"measurement": "% of Cell lines with IC50 < 100 nmol/L", "setting": "[2]; PTEN gene Mutant (8 cell lines), Total", "result": "(50%)"},
      {"measurement": "% of Cell lines with IC50 < 100 nmol/L", "setting": "[2]; PTEN gene Mutant, BRAF Mutant", "result": "(50%)"},
      {"measurement": "% of Cell lines with IC50 < 100 nmol/L", "setting": "[2]; PTEN gene Mutant, BRAF Wild Type", "result": "(0%)"},
      {"measurement": "% of Cell lines with IC50 < 100 nmol/L", "setting": "[2]; PTEN gene Wild Type (23 cell lines), Total", "result": "(65%)"},
      {"measurement": "% of Cell lines with IC50 < 100 nmol/L", "setting": "[2]; PTEN gene Wild Type, BRAF Mutant", "result": "(86%)"},
      {"measurement": "% of Cell lines with IC50 < 100 nmol/L", "setting": "[2]; PTEN gene Wild Type, BRAF Wild Type", "result": "(33%)"},
      {"measurement": "% of Cell lines with IC50 < 100 nmol/L", "setting": "[2]; p-AKT expression High (G2-G3), BRAF Mutant", "result": "(67%)"},
      {"measurement": "% of Cell lines with IC50 < 100 nmol/L", "setting": "[2]; p-AKT expression High (G2-G3), BRAF Wild Type", "result": "(0%)"},
      {"measurement": "% of Cell lines with IC50 < 100 nmol/L", "setting": "[2]; p-AKT expression High (G2-G3), Total", "result": "(57%)"},
      {"measurement": "% of Cell lines with IC50 < 100 nmol/L", "setting": "[2]; p-AKT expression Low (G0-G1), BRAF Mutant", "result": "(79%)"},
      {"measurement": "% of Cell lines with IC50 < 100 nmol/L", "setting": "[2]; p-AKT expression Low (G0-G1), BRAF Wild Type", "result": "(30%)"},
      {"measurement": "% of Cell lines with IC50 < 100 nmol/L", "setting": "[2]; p-AKT expression Low (G0-G1), Total", "result": "(58%)"},
      {"measurement": "Number of sensitive cell lines", "setting": "[2]; of the 8 cell lines with mutant PTEN or loss of PTEN", "result": 3, "unit": "cell lines"},
      {"measurement": "Number of sensitive cell lines", "setting": "[2]; of the 23 cell lines with wild-type PTEN", "result": 12, "unit": "cell lines"},
      {"measurement": "Tumor-free animals at the end of the study on day 59", "setting": "[3]; 10 mg/kg i.v. Q4D×3", "result": "1/8 and one"},
      {"measurement": "Tumor-free animals at the end of the study on day 59", "setting": "[3]; 20 mg/kg i.v. Q4D×3", "result": "5/8 and five"},
      {"measurement": "Tumor-free animals at the end of the study on day 59", "setting": "[3]; 40 mg/kg i.v. Q4D×3", "result": "7/8 and seven"},
      {"measurement": "Anticancer activity (tumor volume vs. control group)", "setting": "[3]; 10, 20, and 40 mg/kg i.v. Q4D×3", "result": "statistically significant anticancer activity"},
      {"measurement": "tumor regression", "setting": "[4]", "result": "30-40%"}
    ]}
  ]
}
